# Assay results from PMC13223435, “Synthesis and Antiproliferative Activity against Melanoma Cells of New Heterocyclic Hybrids Based on Pyridine and Pyrimidine Scaffolds” (Current Medicinal Chemistry, 2025).
# Key:
# Format in all cases: cell-based
# A375 cells [1] = assay: Cell cycle analysis (PI staining, Muse); conditions: 5 h
# Protocol: For cell cycle analysis, A375 cells were initially plated in 6-well plates at a density of 1×10^5 cells per well and allowed to culture for 24 hours. Following this incubation period, the culture medium was replaced with fresh medium containing 16b and 29 at final concentrations of 1, 5, and 10 µM, after which the cells were incubated for an additional 5 hours. For control purposes, cells cultured in a medium containing 0.2% DMSO without treatment were utilized. The experimental procedure involved several steps: initially, the cells were rinsed with PBS, and then collected via trypsinization. The resulting cell pellet underwent another PBS wash before being fixed with 70% cold ethanol (Chempur, Piekary Śląskie, Polska) at -20°C for at least 3 hours. Before analysis, the ethanol-fixed cells were centrifuged, washed again with PBS, and then treated with Muse Cell Cycle Reagent (Luminex Corporation, Austin, TX, USA), which includes propidium iodide (PI) and RNAse. This staining process was carried out for 30 minutes at room temperature in the absence of light. The assay relies on PI-based staining of DNA content to differentiate and quantify the percentage of cells in the G0/G1, S, and G2/M phases of the cell cycle. The analysis was performed using the Muse Cell Analyzer (Luminex Corporation, Austin, TX, USA). The obtained findings were derived from a minimum of three independent experiments.
# A375 cells [2] = assay: Live-cell imaging (time-lapse microscopy); conditions: 48 h
# Protocol: For live-cell imaging, A375 cells were seeded into 96-well plates at a density of 2×10^3 cells per well and allowed to grow for 24 h before imaging. Next, the cell culture medium was carefully removed, and new medium containing 16b (at 2 µM and 10 µM) and 29 (at 5 µM and 10 µM) was added and the cell culture plate was placed in the imaging chamber of Agilent BioTek Lionheart FX automated microscope (Agilent Technologies, Inc., Santa Clara, CA, USA) equipped with a Plan Fluorite 20x/0.75 objective (Olympus, Nishi-Shinjuki, Tokyo, Japan), and a FLIR Blackfly BFLY-U3-23S6M camera (Teledyne FLIR, Wilsonville, OR, USA). The temperature in the imaging chamber was set to 37°C and CO2 level to 5%. The bright-field images were acquired every 5 minutes for 48 hours.
# melanoma A375 cells = assay: WST-1 antiproliferative assay; conditions: Homo sapiens, A-375
# Excerpt: (§1) The A375 malignant melanoma cell line (ECACC 88113005, Salisbury, UK) was procured from the European Collection of Authenticated Cell Cultures (ECACC). The primary culture of human dermal fibroblasts (HDF) was derived from skin according to the protocol approved by the Ethical Committee of Pomeranian Medical University in Szczecin (KB-0012/02/18). The detailed protocol of fibroblast isolation, authentication, and cell culture conditions was previously described. Both cell lines were cultivated in a humidified incubator under conditions of 5% CO2 and a temperature of 37°C, using Dulbecco’s modified Eagle’s medium (DMEM) with 4500 mg/L glucose (Sigma-Aldrich Merck Group, St. Louis, MO, USA) enriched with 10% heat-inactivated fetal bovine serum (FBS, EURx, Gdańsk, Poland), 2 mM L-glutamine (Sigma-Aldrich Merck Group, St. Louis, MO, USA), and penicillin-streptomycin solution (Sigma-Aldrich Merck Group, St. Louis, MO, USA). Regular assessments for the presence of mycoplasma were conducted using the MycoAlert® Mycoplasma Detection Kit (Lonza, Rockland, ME, USA).
# (§2) The evaluation of the antiproliferative activity of the compounds was performed using the Cell Proliferation Reagent WST-1 assay (Roche, Germany). This assay relies on the reduction of tetrazolium salt to formazan, with the final amount of formazan proportional to the number of viable cells. In our study, A375 cells (2×10^3) and HDF (3×10^3) were initially seeded into 96-well plates and cultured in a humidified atmosphere of 5% CO2 at 37°C. 24 hours later, the culture medium was replaced with a medium containing the tested compounds for a 48-hour incubation period at specified final concentrations. […] For control purposes, cells without the tested compounds, which contained only the vehicle (DMSO), were used. Additionally, a blank sample consisting of tested compounds in a medium (without cells) was included. After the 48-hour incubation period, the WST-1 reagent was introduced and allowed to incubate with the cells for 30 minutes. The absorbance was subsequently measured at 450 nm with background correction at 620 nm using a microplate reader (Infinite 200 Pro, Tecan, Männedorf, Switzerland). Cell viability was calculated according to the following formula: [(Atest–Ablank)/ (Acontrol − Ablank)] × 100%. These measurements were conducted in triplicate for at least three independent experiments.
# In the screening step, 10 µM solutions of all 33 compounds were tested on A375 cells. […] Selected compounds (2c, 18e, 16b, 29) were tested at concentrations of 0.1, 1, 10, 50, and 100 µM. The IC50 values were determined using an online calculator (AAT Bioquest, Inc., Quest Graph™ IC50 Calculator (v.1). Retrieved from https://www.aatbio.com/tools/IC50-calculator-v1, accessed on: 2022, December 12).
# [3] = tested on: human dermal fibroblasts (HDF); assay: WST-1 assay on non-tumor cells (selectivity)
# Excerpt: as §1, §2
# For that purpose, non-tumor HDF cells were used and the concentrations of tested compounds were increased to 200 µM (0.4% DMSO) and 500 µM (1% DMSO). Appropriate controls were prepared for higher concentrations of DMSO.
# A375 cells [4] = assay: Annexin V-PE/7-AAD apoptosis assay (Muse); conditions: 48 h, early and late apoptotic
# Protocol: In this study, A375 cells were initially seeded into 24-well plates at a density of 1×10^4 cells per well. After 24 hours, the cell culture medium was carefully removed, and a new medium containing 16b and 29 at varying final concentrations (1, 5, and 10 µM) was added, followed by an additional 48-hour incubation. Cells in a medium containing 0.2% DMSO served as the control group. After the treatment period, cells were washed with phosphate-buffered saline (PBS), and both the cell medium and PBS wash were retained. The cells were then detached using trypsin and centrifuged. The resulting cell pellet was suspended in a fresh medium after discarding the supernatant. An equivalent volume of Muse Annexin V & Dead Cell Reagent (Luminex Corporation, Austin, TX, USA) was added and thoroughly mixed through repeated pipetting. The staining procedure was conducted for 20 minutes at room temperature in the absence of light. The Muse Cell Analyzer (Luminex Corporation, Austin, TX, USA) was utilized for analysis. This assay detects phosphatidylserine (PS) on apoptotic cell surfaces using annexin V-PE (phycoerythrin) binding. A 7-AAD (7-aminoactinomycin D) marker was used to assess cell membrane integrity. The dual staining approach enabled the identification of four distinct cell groups: viable (Annexin V-PE− and 7-AAD−), early apoptotic (Annexin V-PE+ and 7-AAD−), late apoptotic/dead (Annexin V-PE+ and 7-AAD+), and primarily nuclear debris (Annexin V-PE− and 7-AAD+). The findings were based on at least three separate experimental runs.
compound,measurement,setting,value
COc1cc(Cn2cc(-c3cccs3)ccc2=S)cc(OC)c1OC [Compound 16b],percentage of A375 cells in the G2/M phase,A375 cells [1]; 1 µM,33.79 ± 0.46%
same,percentage of A375 cells in the G2/M phase,A375 cells [1]; 5 µM,39.33 ± 5.27%
same,percentage of A375 cells in the G2/M phase,A375 cells [1]; 10 µM,44.52 ± 4.00%
same,time-lapse observation of A375 cells,A375 cells [2]; 2 µM,"cells also divided, but less effectively, divisions lasted longer, and finally, the confluence was lower than that in the control well"
same,time-lapse observation of A375 cells,A375 cells [2]; 10 µM,"arrested mitosis resulted in mitotic slippage, leading to apoptosis or formation of binucleated cells"
same,activity at 10 µM,"melanoma A375 cells; 10 µM, 48 h of treatment, A375, read-out: Cell proliferation (% control)",42.8 ± 22.9%
same,IC50,melanoma A375 cells; 48 hours of treatment,1.85 ± 0.44 µM
same,IC50,"[3]; Fibroblast, 48 hours of treatment, normal human dermal fibroblasts",120 ± 8.42 µM
same,Selectivity index (SI),[3]; IC50 normal cells (HDF)/IC50 cancer cell (A375),65.08
same,percentage of annexin-positive cells,A375 cells [4]; 5 µM,18.43 ± 2.90%
same,percentage of annexin-positive cells,A375 cells [4]; 10 µM,30.50 ± 1.27%
